Source: PMC10424242, “Macrocyclic Peptidomimetic Plasmepsin X Inhibitors with Potent In Vitro and In Vivo Antimalarial Activity” (Journal of Medicinal Chemistry, 2023)
“Also recorded” adds a separate entry of the source.

Assays:
[1] = system: SUB1 p54 to p47 conversion (PMX activity); assay: Washout assay, SUB1 maturation by Western blot; format: cell-based, P. falciparum; details: 20 nM ∼44 h, C2 1 μM for 1 h
Method: (§1) The schizont cultures lacking added RBCs were supplemented with compound C2, which blocks the discharge of exonemes, the parasite secretory organelles in which PMX and SUB1 are stored before egress. The schizonts without added RBCs were sampled for Western blot analysis, while the schizont cultures containing RBCs were examined by microscopy and flow cytometry after a further 4 h in culture to quantify schizont rupture and new ring formation.
(§2) Synchronous parasite cultures were cultured from ring to schizont stage (∼44 h) in the presence of DMSO alone (0.04% v/v; control) or macrocycle compounds (20 nM final concentration). Schizonts were isolated by Percoll enrichment (still in the presence of the test compound), then either immediately frozen or further incubated in the absence of the drug but in the presence of C2 (1 μM) for 1 h at 37°C in the absence of added RBCs or for 3.5 h in the presence of added RBCs. The schizonts without added RBCs were then frozen too, and all schizont samples were then thawed into CHAPS–urea extraction buffer, subjected to sodium dodecyl sulfate-polyacrylamide gel electrophoresis (SDS-PAGE), and analyzed by Western blot, probing with antibodies against SUB1 or RAP1. For schizonts cultured in the presence of added RBCs, ring formation was assessed in two ways: cultures were examined microscopically by Giemsa stain of thin films and were also fixed with glutaraldehyde and processed for quantification of ring formation by flow cytometry as described above.

[2] = Tolerability testing in mice; format: in vivo, NMRI female mice; details: p.os 50 mg/kg up to 24 h, 0–6 score system
Method: NMRI female mice (10–12 weeks old, 29–32 g) were obtained from ENVIGO (The Netherlands) and housed prior to treatment under standard conditions (acclimatization period of 1 week, 21–23 °C, 12-h light/dark cycle, relative humidity 45–65%) with unlimited access to food (R70 diet from Lantmännen) and water. The experimental procedures were performed in accordance with the guidelines of the European Community and local laws and policies (Directive 2010/63/EU), and all of the procedures were approved by Food and Veterinary Service, Riga, Latvia. Animals were weighed on the day of the treatment (before treatment) to calculate the required amount of compound for the corresponding dose. For tolerability and PK studies, the mice were dosed via a peroral (PO) bolus administration (volume 10 mL/kg). Toxicity signs were scored 0–2, 5, 10, 15, 30, 60, 120, 240 min, and 24 h after administration using a widely used 0–6 score system.

[3] = system: P. falciparum Pf3D7^0087/N9; assay: In vivo efficacy against P. falciparum in the TAD PfalcHuMouse model
Method: Therapeutic efficacy studies were performed at TAD using a standardized humanized mouse model of P. falciparum malaria[31] with modifications.[34] […] The volume of injections was 1 and 0.7 mL for i.p. or i.v. inoculation, respectively.
The inoculum was obtained from peripheral blood of CO2-euthanized donor mice harboring 5–10% parasitemia.
Before drug administration, each infected mouse was randomly assigned to its corresponding treatment. […] The treatment was administered by oral gavage with 20G straight reusable feeding needles (Fine Science Tools GmbH) at 10 mL·kgbodyweight^–1 unless otherwise stated.
Parasitemia was measured in serial 2 μL of samples of tail blood by flow cytometry and expressed as the % of parasitized erythrocytes with respect to the total erythrocytes in circulation.
The clearance of parasitized erythrocytes from the peripheral blood of mice was assessed by measuring the parasite reduction ratio (PRR) calculated as the ratio between parasitemia at Day n + 2 divided by parasitemia at Day n for each individual of the study.
The parasiticidal effect of drugs in vivo was assessed by measuring the day of recrudescence (DoR) as described.[34] In short, DoR was defined as the day at which parasitemia after drug treatment reached the % parasitemia at treatment inception. Drug-treated mice were deemed cured if there was no detectable parasitemia 60 days after treatment.

[4] = system: P. falciparum schizonts; assay: Washout assay, schizont rupture and new ring formation; format: cell-based; details: 20 nM ∼44 h, […] with added RBCs
Method: as §1, §2

[5] = Pharmacokinetics in mice (plasma, UPLC/MS/MS); format: in vivo; details: female, NMRI, mouse, po, p.os 50 mg/kg
Method: Animals were weighed on the day of the treatment (before treatment) to calculate the required amount of compound for the corresponding dose. For tolerability and PK studies, the mice were dosed via a peroral (PO) bolus administration (volume 10 mL/kg).
For the pharmacokinetics experiment, blood samples were collected in tubes containing heparin. […] Tubes were centrifuged at +4 °C 10,000g for 3 min. Plasma samples were collected and stored at −20 °C until analysis.
Concentrations of VAD259 in mouse plasma were measured by ultra-performance liquid chromatography–tandem mass spectrometry using Waters Acquity UPLC H-class chromatograph coupled to the Waters Xevo TQ-S micro mass spectrometer using the Waters Acquity UPLC BEH-C18 column (2.1 mm × 50 mm, 1.7 μm). Mobile phase A was 0.1% aqueous formic acid, and mobile phase B was acetonitrile.
The mass spectrometer was operated in positive electrospray ionization mode (ESI+), and data acquisition was performed in multiple reaction monitoring (MRM) modes with ionization parameters as follows: capillary energy of 3.0 kV, cone voltage of 25 V, and collision energy of 20 eV.
Blood plasma samples were processed using plasma protein precipitation. Then, 20 μL of plasma was mixed with 300 μL of acetonitrile/methanol (3:1/v:v) mixture, and the sample was centrifuged at 1000g for 10 min. The supernatant was further diluted 3 times with 0.1% aqueous formic acid and subjected to UPLC/MS/MS analysis.

With CCCN1CCCCCc2cccc(c2)C[C@@H]([C@H](O)CNC(C)(C)c2cccc(OC)c2)NC(=O)c2cccc(c2)C1=O [7k, (S)-4-((R)-1-Hydroxy-2-((2-(3-methoxyphenyl)propan-2-yl)amino)ethyl)-12-propyl-3,12-diaza-1,6(1,3)-dibenzenacyclotridecaphane-2,13-dione] the “SUB1 p54 to p47 conversion after washout” value [1] was “no conversion of SUB1 p54 to p47 occurred”, the tolerability [2] was “No adverse effects were observed; also recorded: no toxic effect (score 0)” and the “clearance of parasitemia from peripheral blood” value ([3]; 40 mg/kg p.o., UID, BID or TID) was “cleared parasitemia from the peripheral blood in a dose-dependent manner”. For the same compound, the “parasite clearance rate compared with chloroquine” value ([3]; chloroquine at 10 mg/kg for 2 days in the same system) was “comparable to those produced by chloroquine at 10 mg/kg for 2 days”, the “parasite killing in vivo (DoR versus exposure) compared with chloroquine” value ([3]; comparable treatment regimens, chloroquine historical data) was “as potent as chloroquine” and the “distribution of parasite stages in peripheral blood” value ([3]; day 3 of the assay, flow cytometry and microscopy) was “relative accumulation of circulating mature schizonts compared to untreated controls”. For the same compound, the “effect on parasite burden” value ([3]; three times a day for 4 days at 40 mg/kg, oral) was “eliminated P. falciparum from peripheral blood at a rate comparable to chloroquine single-dose administration for 2 days (10 mg/kg)”, the “new ring formation after washout” value [4] was “minimal rings were produced” and the AUC(0-t) at 6 h [5] was 218 ng·h/mL. For the same compound, the Cmax at 6 h [5] was 64 ng/mL, the Tmax at 6 h [5] was 1 h and the half-life at 6 h [5] was 53 min. It also gave an AUC(0-inf) at 6 h ([5]; read-out: AUC0-inf_obs) of 222 ng·h/mL.
